Where a chain is given by its changes, count along the chain named. “And” between values parts separate entries of the source, which are not always exact repeats. Equal values may be shown once. Read-outs that look alike come from different tables or passages of the source.
Experiments:
EcoFiu (Fiu_A694C-FM) = biological target: T1, EcoFiu (Fiu_A694C-FM) (Escherichia coli, UniProt P75780, A694C); test: biochemical; type: binding
T1 sequence (P75780 32-760 A694C): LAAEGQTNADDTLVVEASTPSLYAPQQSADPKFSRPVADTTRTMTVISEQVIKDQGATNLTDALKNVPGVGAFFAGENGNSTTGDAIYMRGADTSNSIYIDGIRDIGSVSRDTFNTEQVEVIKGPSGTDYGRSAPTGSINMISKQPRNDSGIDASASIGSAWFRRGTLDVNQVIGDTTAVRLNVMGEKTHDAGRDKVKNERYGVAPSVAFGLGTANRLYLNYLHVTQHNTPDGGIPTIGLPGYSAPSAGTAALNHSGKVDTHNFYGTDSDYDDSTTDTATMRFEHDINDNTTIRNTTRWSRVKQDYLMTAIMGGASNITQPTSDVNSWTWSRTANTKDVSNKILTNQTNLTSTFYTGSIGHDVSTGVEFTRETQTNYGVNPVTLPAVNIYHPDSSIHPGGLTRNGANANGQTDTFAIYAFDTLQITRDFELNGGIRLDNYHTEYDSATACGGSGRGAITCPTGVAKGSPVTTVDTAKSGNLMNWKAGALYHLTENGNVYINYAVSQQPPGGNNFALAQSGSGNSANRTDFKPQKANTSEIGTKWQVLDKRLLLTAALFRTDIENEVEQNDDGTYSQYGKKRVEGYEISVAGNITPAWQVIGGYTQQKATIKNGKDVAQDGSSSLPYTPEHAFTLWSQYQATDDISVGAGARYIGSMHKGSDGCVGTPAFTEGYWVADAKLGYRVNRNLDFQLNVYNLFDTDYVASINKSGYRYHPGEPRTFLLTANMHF

AbaPirA = biological target: T2, AbaPirA (Acinetobacter baumannii, UniProt D0C8V9); conditions: read-out: apparent KD; AbaPirA sensor; NB = no binding
T2 sequence (D0C8V9 25-754): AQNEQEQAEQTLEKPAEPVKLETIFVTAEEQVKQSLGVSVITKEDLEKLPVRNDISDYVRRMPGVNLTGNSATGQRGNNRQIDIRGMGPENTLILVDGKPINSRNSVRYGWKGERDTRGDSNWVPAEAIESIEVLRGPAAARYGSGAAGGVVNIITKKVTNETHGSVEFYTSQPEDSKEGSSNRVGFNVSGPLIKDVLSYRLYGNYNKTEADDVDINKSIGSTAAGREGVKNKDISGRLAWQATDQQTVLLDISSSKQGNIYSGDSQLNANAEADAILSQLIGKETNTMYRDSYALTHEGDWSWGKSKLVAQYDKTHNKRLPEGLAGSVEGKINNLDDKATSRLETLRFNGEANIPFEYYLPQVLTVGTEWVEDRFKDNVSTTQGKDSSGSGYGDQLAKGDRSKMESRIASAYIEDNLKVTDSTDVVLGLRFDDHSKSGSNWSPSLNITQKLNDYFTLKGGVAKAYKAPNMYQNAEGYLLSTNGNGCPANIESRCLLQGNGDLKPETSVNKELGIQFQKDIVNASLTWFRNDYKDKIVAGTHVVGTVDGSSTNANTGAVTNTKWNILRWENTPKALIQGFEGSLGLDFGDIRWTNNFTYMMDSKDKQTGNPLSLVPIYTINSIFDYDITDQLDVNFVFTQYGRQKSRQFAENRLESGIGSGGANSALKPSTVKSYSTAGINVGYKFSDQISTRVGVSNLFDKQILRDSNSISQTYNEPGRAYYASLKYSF

Fiu N554C-FM = biological target: T3, Fiu N554C-FM (Escherichia coli, UniProt P75780, N554C); type: binding; conditions: Fiu Cys mutant N554C-FM (positive control); read-out: Affinity: apparent KD
T3 sequence (P75780 32-760 N554C): T1 sequence (P75780 32-760 A694C) with N523C, C663A

AbaPiuA = biological target: T4, AbaPiuA (Acinetobacter baumannii, UniProt D0CAH3); conditions: read-out: apparent KD; AbaPiuA sensor; NB = no binding
T4 sequence (D0CAH3 29-743): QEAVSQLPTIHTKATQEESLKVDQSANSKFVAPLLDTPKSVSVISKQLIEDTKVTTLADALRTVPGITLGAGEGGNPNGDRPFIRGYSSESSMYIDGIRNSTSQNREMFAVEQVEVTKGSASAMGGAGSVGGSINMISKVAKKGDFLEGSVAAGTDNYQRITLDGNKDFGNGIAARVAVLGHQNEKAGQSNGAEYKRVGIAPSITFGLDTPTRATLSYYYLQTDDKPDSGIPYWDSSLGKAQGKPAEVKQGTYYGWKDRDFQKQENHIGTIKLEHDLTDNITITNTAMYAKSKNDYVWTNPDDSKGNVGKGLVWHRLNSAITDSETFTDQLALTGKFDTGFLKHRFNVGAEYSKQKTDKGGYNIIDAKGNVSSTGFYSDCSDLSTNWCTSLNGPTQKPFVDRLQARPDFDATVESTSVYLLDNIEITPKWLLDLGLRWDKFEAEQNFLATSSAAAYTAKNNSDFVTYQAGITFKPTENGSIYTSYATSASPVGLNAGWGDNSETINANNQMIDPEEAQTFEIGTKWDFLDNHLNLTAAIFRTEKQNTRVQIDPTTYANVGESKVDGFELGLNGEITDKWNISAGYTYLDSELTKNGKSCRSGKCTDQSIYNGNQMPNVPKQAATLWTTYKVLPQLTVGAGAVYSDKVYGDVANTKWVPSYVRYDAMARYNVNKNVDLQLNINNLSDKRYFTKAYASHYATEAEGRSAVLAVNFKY

[1] = tested on: OKN359/pFepA Fiu^−, FepA^+, Cir-; conditions: summary in words
[2] = tested on: OKN359/pFiu Fiu^+, FepA^−, Cir-; conditions: summary in words; strains exclusively expressing Fiu
[3] = tested on: OKN359/pCir Fiu^−, FepA^−, Cir^+; conditions: summary in words
EcoCir = EcoCir (Escherichia coli, UniProt P17315); type: binding
EcoFepA = type: binding, Escherichia coli; conditions: read-out: apparent KD
AbaBauA = biological target: T5, AbaBauA (Acinetobacter baumannii, UniProt Q76HJ9); conditions: AbaBauA sensor; NB = no binding; read-out: apparent KD
T5 sequence (Q76HJ9 23-725): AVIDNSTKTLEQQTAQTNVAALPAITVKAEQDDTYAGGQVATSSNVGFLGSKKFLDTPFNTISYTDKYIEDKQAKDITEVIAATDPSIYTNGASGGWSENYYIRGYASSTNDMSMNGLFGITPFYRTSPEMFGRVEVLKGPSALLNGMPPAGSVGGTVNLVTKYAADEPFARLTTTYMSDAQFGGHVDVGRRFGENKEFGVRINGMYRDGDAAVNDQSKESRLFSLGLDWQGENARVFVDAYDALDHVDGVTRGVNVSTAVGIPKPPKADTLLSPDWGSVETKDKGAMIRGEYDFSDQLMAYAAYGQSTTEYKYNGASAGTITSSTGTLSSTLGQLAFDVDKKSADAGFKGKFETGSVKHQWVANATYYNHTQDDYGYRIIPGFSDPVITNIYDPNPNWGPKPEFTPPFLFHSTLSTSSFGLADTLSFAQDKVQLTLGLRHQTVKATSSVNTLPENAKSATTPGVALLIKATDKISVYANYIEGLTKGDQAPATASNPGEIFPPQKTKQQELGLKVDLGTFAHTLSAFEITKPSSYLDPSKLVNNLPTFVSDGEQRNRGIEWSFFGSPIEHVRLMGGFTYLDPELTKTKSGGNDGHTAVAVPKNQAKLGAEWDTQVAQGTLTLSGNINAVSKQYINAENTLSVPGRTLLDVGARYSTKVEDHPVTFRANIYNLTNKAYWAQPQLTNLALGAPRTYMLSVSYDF

[4] = apparent KD, EcoFiu sensor (Fiu_A694C-FM; FeDHBA with Fiu_N554C-FM), NB = no binding

EcoCir, sequence (P17315 26-663): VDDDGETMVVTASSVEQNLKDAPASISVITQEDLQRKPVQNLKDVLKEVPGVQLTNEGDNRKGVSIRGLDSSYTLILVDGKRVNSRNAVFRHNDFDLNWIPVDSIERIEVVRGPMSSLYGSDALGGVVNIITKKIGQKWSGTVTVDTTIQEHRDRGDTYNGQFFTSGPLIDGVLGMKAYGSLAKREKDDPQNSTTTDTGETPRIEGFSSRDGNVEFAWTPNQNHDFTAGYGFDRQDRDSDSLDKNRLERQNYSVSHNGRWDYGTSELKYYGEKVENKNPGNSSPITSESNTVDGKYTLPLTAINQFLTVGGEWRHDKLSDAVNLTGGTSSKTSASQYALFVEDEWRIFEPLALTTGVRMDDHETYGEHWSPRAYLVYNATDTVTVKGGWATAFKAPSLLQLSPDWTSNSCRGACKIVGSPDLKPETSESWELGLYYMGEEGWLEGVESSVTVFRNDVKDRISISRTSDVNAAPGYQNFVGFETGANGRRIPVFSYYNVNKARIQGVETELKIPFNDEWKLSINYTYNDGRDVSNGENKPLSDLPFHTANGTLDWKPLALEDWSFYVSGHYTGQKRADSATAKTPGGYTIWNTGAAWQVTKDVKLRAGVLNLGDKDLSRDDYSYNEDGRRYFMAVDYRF

Compound: O=C(O)c1cccc(O)c1O.O=C(O)c1cccc(O)c1O.O=C(O)c1cccc(O)c1O.[Fe+3] [FeDHBA]
- fluorescence quenching at site A694C-FM (EcoFiu (Fiu_A694C-FM); Fiu_A694C-FM): did not observe significant quenching
- Kd (EcoFiu (Fiu_A694C-FM); [4]): 700 ± 100 nM
- Kd (AbaPirA): 9400 ± 900 nM
- Kd (Fiu N554C-FM): 700 nM
- Kd (AbaPiuA): 15000 ± 3000 nM
- transport by FepA [1]: transported
- transport by Fiu [2]: did not utilize

Compound: O=C(N[C@@H](CO)C(=O)O)c1cccc(O)c1O.O=C(N[C@@H](CO)C(=O)O)c1cccc(O)c1O.O=C(N[C@@H](CO)C(=O)O)c1cccc(O)c1O.[Fe+3] [FeDHBS]
- transport by Cir [3]: weakly
- Kd (EcoFiu (Fiu_A694C-FM); [4]): 100 nM and ~100 nM
- Kd (EcoFiu (Fiu_A694C-FM); apparent KD, EcoFiu sensor, value marked ^1): 90 ± 0.2 nM
- Kd (EcoCir; read-out: apparent KD, EcoCir sensor, NB = no binding): 7200 ± 900 nM
- Kd (EcoFepA): 1600 ± 300 nM
- Kd (AbaPirA): 161000 ± 40000 nM
- transport by Fiu [2]: did not utilize

Compound: O=C(N[C@@H](CO)C(=O)OC[C@H](NC(=O)c1cccc(O)c1[O-])C(=O)O)c1cccc([O-])c1[O-].[Fe+3] [FeEnt*, Fe(DHBS)2]
- Kd (EcoFiu (Fiu_A694C-FM); [4]): 740 nM

Compound: CC(C)(O/N=C(\C(=O)N[C@@H]1C(=O)N2C(C(=O)O)=C(C[N+]3(CCNC(=O)c4ccc(O)c(O)c4Cl)CCCC3)CS[C@H]12)c1csc(N)n1)C(=O)O.[Fe+3] [FeFDC]
- Kd (EcoFiu (Fiu_A694C-FM); [4]): 500 nM
- Kd (EcoFiu (Fiu_A694C-FM); read-out: apparent KD, EcoFiu sensor (Fiu_A694C-FM; FeDHBA with Fiu_N554C-FM), NB = no binding): 400 ± 500 nM
- Kd (EcoCir; Cir): 60 nM
- Kd (EcoCir; read-out: apparent KD, EcoCir sensor, value marked ^1): 63 ± 6 nM
- Kd (AbaPirA): 6200 ± 2300 nM

Compound: CC(C)(O/N=C(\C(=O)N[C@@H]1C(=O)N2C(C(=O)[O-])=C(C[N+]3(CCNC(=O)c4ccc([O-])c([O-])c4Cl)CCCC3)CS[C@H]12)c1csc(N)n1)C(=O)O.[Fe+3] [FeFDC]
- susceptibility of cells expressing only FepA [1]: not susceptible

Compound: ferric acinetobactin [FeAgn]
- Kd (AbaBauA): 2100 ± 400 nM
